“Also recorded” adds a separate entry of the source.
How the values were obtained:
Type in all cases: in vivo
morphine-dependent mice = assay: Naloxone-precipitated withdrawal jumping in morphine-dependent mice
Procedure: After naloxone administration, mice were placed in clear plastic cylinders (10 cm in diameter and 40 cm in height, and the number of jumps during the following 15 minutes were counted. Naloxone precipitated jumping behavior is a robust response reflecting physical dependence on opioids observed across strains of inbred mice (Kest, B., et al., Neuroscience 2002. 115(2): 463-469).
(§1) In some experiments the selective 5-HT3 antagonist ondansetron (Sigma) was administered. For systemic administration, ondansetron was injected subcutaneously in […] of 0.9% NaCl to some groups of mice. […] For intracerebroventricular (i.c.v.) administration, mice were briefly anesthetized with inhaled isoflurane. A 30 gauge ½ inch needle was used to pierce the skull and enter the ventricles using an approach described previously (Pedigo, N. W. et al. J Pharmacol Exp Ther, 1975. 193(3): p. 845-852). Once inserted, 5 μl of injectate was slowly administered using a microsyringe, and the animals were used within 20 minutes after the injection.

C57BL/6J mice [1] = assay: Opioid dependence related hyperalgesia, mechanical nociceptive threshold (von Frey filaments)
Procedure: as §1
In these experiments, mice were placed on wire mesh platforms in clear cylindrical plastic cylinders. After 15 minutes of acclimation, fibers of sequentially increasing stiffness were applied to the plantar surface of one hind paw, pressed upward to cause a slight bend in the fiber and left in place 5 sec. Withdrawal of the hind paw from the fiber was scored as a response. When no response was obtained the next stiffest fiber in the series was applied to the same paw; if a response was obtained a less stiff fiber was applied. Testing proceeded in this manner until 4 fibers had been applied after the first one causing a withdrawal response allowing the estimation of the mechanical withdrawal threshold (Poree, L. R., et al., Anesth Analg, 1998. 87(4): p. 941-948).

C57BL/6J mice [2] = assay: Conditioned place preference (CPP) associated with morphine
Procedure: The CPP experiments were performed using Place Preference System (MED Associates Inc., St. Albans, Vt.), which consists of three compartments; two outer compartments for active association and a middle neutral compartment. One association compartment is constructed of white opaque plastic walls with a floor made of metal rods while the other compartment is made of black opaque plastic walls with a metal mesh floor. The smaller middle neutral compartment is made of gray opaque plastic walls and floor. Experiments were conducted in a dimly lit room with homogenous lighting (˜20 lux). The place preference apparatus is equipped with motion photo-sensors with data recorded via a computer running MED PC software (MED Associates Inc, Vt.). C57B1/6J mice (8 to 12 weeks old) were used in all experiments, which were carried out during the second half of the light phase between 13:00-18:00 hr. On Day 0, the mice were acclimated to the test room and the time spent in each compartment was recorded (pre-conditioning report). Any mouse that spent more than 75% of the time in either of the association compartments was excluded. On the following day each mouse was randomized to a control or drug group and assigned to either the white or black association compartments in a counter-balanced fashion (n=10-15 per group). […] Twenty-five minutes after injection(s), each mouse was placed into its assigned association compartment for 25 min without access to the other compartments. On Days 2, 4 and 6, the mice received saline injections and were placed in the alternative compartment after 25 min. On Day 7, mice were placed in the middle neutral compartment of the place preference apparatus with full access to the other two compartments and assessed for the length of time spent in each compartment (post-conditioning report). The percentage of time spent in each association compartment was calculated relative to the total time spent in both association compartments.

Htr3b mRNA = Htr3b mRNA expression in brain after chronic morphine (specificity control); details: brain tissue, four days of morphine versus saline, C57Bl/6J and 129/SvlmJ mice
healthy male volunteers = assay: Acute naloxone-precipitated opioid withdrawal in human volunteers after ondansetron pretreatment (OOWS, SOWS)
Excerpt: Eight healthy male volunteers underwent an acute precipitated narcotic drug withdrawal protocol as previously described (Compton, P., et al., Pharmacol Biochem Behav, 2004. 77(2): p. 263-268) with or without ondansetron pretreatment using a randomized double-blinded placebo-controlled crossover study design on two separate occasions. Test sessions for each individual subject were separated by at least seven days. Female volunteers were excluded from the study due to modulation of opioid response by menstruation cycles (Hoehe, M., Psychoneuroendocrinology, 1988. 13(4): p. 339-344). The human experimental protocol was approved by the Institutional Review Board (Stanford University). Each volunteer provided written informed consent prior to study enrollment, and the study was registered in the clinicaltrials.gov database (identifier NCT00661674).
All study sessions were conducted by a blinded research assistant (ND) and supervised by an un-blinded physician (LC) who administered the study medication and monitored heart rate, blood pressure and arterial oxygenation throughout the study. The subjective opioid withdrawal scale (SOWS) and objective opioid withdrawal scale (OOWS) were completed after establishing intravenous access and before administration of study medications, as originally described by Handelsman et al (Handelsman, L., et al., Am J Drug Alcohol Abuse, 1987. 13(3): p. 293-308). All OOWS measurements were obtained by the same blinded research assistant (ND). Ondansetron (Bedford Laboratories, Bedford, Ohio) 8 mg or placebo (0.9% saline solution, Hospira Inc., Lake Forest, Ill.) was administered in a double-blinded fashion as an IV bolus. […] Patients remained in the lab under observation for 105 minutes and were offered music or video entertainment and caffeine-free meals or snacks ad lib during this period of time. After 105 minutes, the patient's vital signs and OOWS and SOWS were reassessed. […] Vital signs, SOWS and OOWS were administered five minutes and fifteen minutes after the naloxone administration.
Animal behavioral data was analyzed using one or two-way ANOVA with post-hoc Tukey testing or, for conditioned place preference data with t-testing. The outcome measures of interest between the placebo- and ondansetron-treated groups were compared using paired t test and the Wilcoxon Signed Rank test where appropriate. Normal distribution was determined using QQ plots and the Kolmogorov-Smirnov test. Analyses were performed with SAS 9.1 statistical package (Cary, Ill.) with p<0.05 considered statistically significant.

male volunteers = assay: Naloxone-induced withdrawal in human volunteers, palonosetron alone or with hydroxyzine; details: palonosetron 0.75 mg IV alone, 12 male volunteers
Procedure: In these studies, palonosetron (a 5-HT3 antagonist) was administered alone, or in combination with a clinically available antihistamine (hydroxyzine) to human volunteers.

[3] = ondansetron 8 mg IV 30 minutes prior to morphine 10 mg/70 kg IV, naloxone 120 minutes after morphine, versus placebo

SMILES: CN1CC[C@]23c4c5ccc(O)c4O[C@H]2[C@@H](O)C=C[C@H]3[C@H]1C5 [morphine]
- jumps in the 15 minute period following naloxone administration (morphine-dependent mice; BUB/BnJ mice made dependent on morphine over a 4-day period): over 100
- jumps in the 15 minute period following naloxone administration (morphine-dependent mice; SM/J mice made dependent on morphine over a 4-day period): one
- hyperalgesia after chronic morphine treatment (C57BL/6J mice [1]; C57BL/6J mice, four day morphine protocol): caused hyperalgesia
- mean difference between pre and post conditioning percentage of time spent in the compartment associated with drug (C57BL/6J mice [2]; morphine 5 mg/kg i.p., placed in conditioning chamber 25 min after injection): 21.29%
- expression of the Htr3b gene (Htr3b mRNA): not altered

SMILES: Cc1nccn1CC1CCc2c(c3ccccc3n2C)C1=O (stereo not drawn) [ondansetron]
- naloxone-precipitated withdrawal response (morphine-dependent mice; C57BL/6J mice, ondansetron 1 mg/kg with each morphine dose during 4-day protocol, tested 18 hours after final dose (FIG. 3B)): diminished the naloxone-precipitated withdrawal response
- inhibition of naloxone-precipitated withdrawal (morphine-dependent mice; morphine-dependent C57BL/6J mice, ondansetron 1 mg/kg given acutely): not able to effectively inhibit withdrawal
- naloxone-precipitated jumping behavior (morphine-dependent mice; morphine-dependent C57BL/6J mice, ondansetron i.c.v. before naloxone (FIG. 3C)): profoundly blocked; also recorded: statistically significant and dose-dependent reduction
- naloxone-induced jumping (morphine-dependent mice; morphine-dependent C57BL/6J mice, ondansetron s.c. once, range of doses, 30 minutes prior to testing (FIG. 3A)): significantly reduced; also recorded: statistically significant and dose-dependent reduction
- pain sensitivity / baseline nociceptive thresholds (C57BL/6J mice [1]; control mice not treated with morphine, ondansetron 30 minutes prior to threshold assessment): no effect on pain sensitivity; also recorded: did not alter baseline nociceptive thresholds
- hyperalgesia (mechanical nociceptive sensitization) during morphine abstinence (C57BL/6J mice [1]; morphine-dependent mice, 18 hours after last morphine dose, ondansetron 30 minutes prior to threshold assessment (FIG. 4)): reversed the hyperalgesia; also recorded: dose-dependently reversed
- mean difference between pre and post conditioning percentage of time spent in the compartment associated with drug (C57BL/6J mice [2]; ondansetron 1 mg/kg in addition to morphine 5 mg/kg, i.p.): 0.40%
- place preference associated with morphine administration (C57BL/6J mice [2]; ondansetron 1 mg/kg plus morphine 5 mg/kg): completely blocked
- decrease in mean OOWS score (healthy male volunteers; [3]): 76.4%±22.6
- mean decrease in the subjective symptoms (SOWS score) (healthy male volunteers; [3]): 4.1%±62.5
- individual OOWS signs manifested by the volunteers (healthy male volunteers; ondansetron 8 mg IV pre-treatment, 12 of the 13 measured signs manifested): decreased all 12 of these individual signs
- objective signs of opioid withdrawal in affected subjects (healthy male volunteers; ondansetron 8 mg IV pre-treatment, seven of 8 subjects developed signs): reduced these signs in all seven affected individuals

SMILES: O=C1c2cccc3c2[C@H](CCC3)CN1[C@@H]1CN2CCC1CC2 [palonosetron]
- naloxone-induced withdrawal symptoms relative to placebo control (male volunteers): reduced the naloxone-induced withdrawal symptoms

Reference: US9226918B2, “Methods and compositions for treating or preventing narcotic withdrawal symptoms” (The Board of Trustees of the Leland Stanford Junior …, priority 2008, dated 2016)
